Experimental findings from patent publication US20220153745A1, “DISUBSTITUTED BENZOTHIENYL-PYRROLOTRIAZINES AND THEIR USE AS FGFR KINASE INHIBITORS” (Bayer Intellectual Property GmbH, priority 2011, published 2022) are described below.

SMILES strings stand for the structures. Where a name gives a salt, the structure may show the parent alone.

T1 sequence (P42345 1360-2549): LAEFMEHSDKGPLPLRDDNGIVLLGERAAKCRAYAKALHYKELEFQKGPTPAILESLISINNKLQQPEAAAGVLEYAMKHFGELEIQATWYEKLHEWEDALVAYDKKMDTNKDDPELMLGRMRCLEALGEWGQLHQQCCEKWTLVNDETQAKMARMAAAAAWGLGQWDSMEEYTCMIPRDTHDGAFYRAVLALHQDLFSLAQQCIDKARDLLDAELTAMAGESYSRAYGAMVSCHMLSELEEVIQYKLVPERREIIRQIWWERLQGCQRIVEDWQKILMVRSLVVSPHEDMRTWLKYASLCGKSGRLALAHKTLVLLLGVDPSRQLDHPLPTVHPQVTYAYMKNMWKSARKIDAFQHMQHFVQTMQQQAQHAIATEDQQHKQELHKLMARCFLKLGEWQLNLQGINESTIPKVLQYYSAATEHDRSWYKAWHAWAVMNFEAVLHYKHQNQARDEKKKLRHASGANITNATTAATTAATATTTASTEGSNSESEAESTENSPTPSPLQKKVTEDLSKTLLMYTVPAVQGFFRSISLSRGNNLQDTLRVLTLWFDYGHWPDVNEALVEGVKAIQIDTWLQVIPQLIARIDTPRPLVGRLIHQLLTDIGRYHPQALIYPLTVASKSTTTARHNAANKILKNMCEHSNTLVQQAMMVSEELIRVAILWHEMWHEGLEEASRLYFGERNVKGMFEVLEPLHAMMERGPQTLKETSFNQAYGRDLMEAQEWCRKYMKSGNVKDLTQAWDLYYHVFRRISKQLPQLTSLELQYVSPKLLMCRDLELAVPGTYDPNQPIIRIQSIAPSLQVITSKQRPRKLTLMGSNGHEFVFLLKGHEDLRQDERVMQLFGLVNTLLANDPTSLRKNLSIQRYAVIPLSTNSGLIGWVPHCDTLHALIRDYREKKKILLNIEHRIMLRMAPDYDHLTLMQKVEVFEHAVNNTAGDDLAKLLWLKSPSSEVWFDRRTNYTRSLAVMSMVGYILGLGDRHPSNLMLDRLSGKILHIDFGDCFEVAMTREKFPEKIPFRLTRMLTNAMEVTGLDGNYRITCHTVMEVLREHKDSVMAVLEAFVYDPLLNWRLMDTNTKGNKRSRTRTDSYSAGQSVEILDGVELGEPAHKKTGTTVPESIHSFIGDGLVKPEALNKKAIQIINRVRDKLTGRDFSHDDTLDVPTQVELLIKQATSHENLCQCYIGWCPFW

One test has as its target T1, mTOR (Homo sapiens, UniProt P42345).
T1 construct: human mTOR amino acids from 1360 to 2549; purchased Invitrogen 4753; host or cells: insect cells
In words: mTOR kinase assay (TR-FRET, for comparative purposes). The test is classed as biochemical. The following applies: mean inhibition at 1 μM test compound, 40 μM ATP. A general note: TR-FRET usually uses a lanthanide donor and a delayed reading to cut background.
Take `COCc1c(-c2cc3cc(C)cc(OC)c3s2)c2c(N)ncnn2c1CN1CCNC(=O)C1.Cl.Cl` [Example 2, 4-{[4-Amino-6-(methoxymethyl)-5-(7-methoxy-5-methyl-1-benzothiophen-2-yl)pyrrolo[2,1-f][1,2,4]triazin-7-yl]methyl}piperazin-2-one dihydrochloride]: the “mTOR % inhibition @ 1 μM” value came to 7.2%.

Staying with this test, now noted: read-out: mTOR % inhibition @ 1 μM, mean inhibition at 1 μM test compound, 40 μM ATP.
The inhibition is the percentage by which the read-out fell short of the control. For `COc1cc(C)cc2cc(-c3c(CN4CCCC(O)C4)c(CN4CCNCC4)n4ncnc(N)c34)sc12` (racemic) [Example 40, rac-1-{[4-Amino-5-(7-methoxy-5-methyl-1-benzothiophen-2-yl)-7-(piperazin-1-ylmethyl)pyrrolo[2,1-f][1,2,4]triazin-6-yl]methyl}piperidin-3-ol trihydrochloride], the inhibition at 1 µM was 0.1%.
With `COCc1c(-c2cc3cc(C)cc(OC)c3s2)c2c(N)ncnn2c1CN1CCNC(=O)C1` [Example 1, 4-{[4-Amino-6-(methoxymethyl)-5-(7-methoxy-5-methyl-1-benzothiophen-2-yl)pyrrolo[2,1-f]-[1,2,4]triazin-7-yl]methyl}piperazin-2-one], the inhibition at 1 µM came out at 8.7%.
Still for that read-out and setting: then `CCOCc1c(-c2cc3cc(C)cc(OC)c3s2)c2c(N)ncnn2c1CN1CCNC(=O)C1` [Example 5, 4-{[4-Amino-6-(ethoxymethyl)-5-(7-methoxy-5-methyl-1-benzothiophen-2-yl)pyrrolo[2,1-f][1,2,4]-triazin-7-yl]methyl}piperazin-2-one], with 9.7%; and `CCOCc1c(-c2cc3cc(C)cc(OC)c3s2)c2c(N)ncnn2c1CN1CCNC(=O)C1` [Example 6, 4-{[4-Amino-6-(ethoxymethyl)-5-(7-methoxy-5-methyl-1-benzothiophen-2-yl)pyrrolo[2,1-f][1,2,4]-triazin-7-yl]methyl}piperazin-2-one dihydrochloride], with 0.3%.
Same read-out and setting: then `CCOCc1c(-c2cc3cc(C)cc(OC)c3s2)c2c(N)ncnn2c1CN[C@@H]1CCNC1=O` [Example 7, (3R)-3-({[4-Amino-6-(ethoxymethyl)-5-(7-methoxy-5-methyl-1-benzothiophen-2-yl)pyrrolo[2,1-f]-[1,2,4]triazin-7-yl]methyl}amino)pyrrolidin-2-one dihydrochloride], with 3.1%; and `CCOCc1c(-c2cc3cc(C)cc(OC)c3s2)c2c(N)ncnn2c1CN[C@@H]1CCNC1=O` [Example 8, (3R)-3-({[4-Amino-6-(ethoxymethyl)-5-(7-methoxy-5-methyl-1-benzothiophen-2-yl)pyrrolo[2,1-f]-[1,2,4]triazin-7-yl]methyl}amino)pyrrolidin-2-one], with 7.8%.
Regarding `CCOCc1c(-c2cc3cc(C)cc(OC)c3s2)c2c(N)ncnn2c1CN1CCOCC1` [Example 10, 6-(Ethoxymethyl)-5-(7-methoxy-5-methyl-1-benzothiophen-2-yl)-7-(morpholin-4-ylmethyl)pyrrolo[2,1-f][1,2,4]triazin-4-amine], the inhibition at 1 µM is 6%.
For `COc1cc(C)cc2cc(-c3c(CO)c(CN4CCNCC4)n4ncnc(N)c34)sc12` [Example 12, [4-Amino-5-(7-methoxy-5-methyl-1-benzothiophen-2-yl)-7-(piperazin-1-ylmethyl)pyrrolo[2,1-f]-[1,2,4]triazin-6-yl]methanol bis(formiate)], the inhibition at 1 µM was 25.8%.
Same read-out and setting: then `COCc1c(-c2cc3cc(C)cc(OC)c3s2)c2c(N)ncnn2c1CN1CCNCC1` [Example 17, 6-(Methoxymethyl)-5-(7-methoxy-5-methyl-1-benzothiophen-2-yl)-7-(piperazin-1-ylmethyl)pyrrolo[2,1-f][1,2,4]triazin-4-amine formiate], with 6.7%; and `CCOCc1c(-c2cc3cc(C)cc(OC)c3s2)c2c(N)ncnn2c1CN1CCNCC1` [Example 19, 6-(Ethoxymethyl)-5-(7-methoxy-5-methyl-1-benzothiophen-2-yl)-7-(piperazin-1-ylmethyl)pyrrolo[2,1-f][1,2,4]triazin-4-amine dihydrochloride], with 17.6%; and `CCOCc1c(-c2cc3cc(C)cc(OC)c3s2)c2c(N)ncnn2c1CN1CCN(C(C)=O)CC1` [Example 20, 1-(4-{[4-Amino-6-(ethoxymethyl)-5-(7-methoxy-5-methyl-1-benzothiophen-2-yl)pyrrolo[2,1-f]-[1,2,4]triazin-7-yl]methyl}piperazin-1-yl)ethanone], with 31.3%.
Consider `CCCCOCc1c(-c2cc3cc(C)cc(OC)c3s2)c2c(N)ncnn2c1CN1CCNCC1` [Example 23, 6-(Butoxymethyl)-5-(7-methoxy-5-methyl-1-benzothiophen-2-yl)-7-(piperazin-1-ylmethyl)pyrrolo[2,1-f][1,2,4]triazin-4-amine formiate], for which the inhibition at 1 µM turned out to be 11.6%.
Consider `CCCOCc1c(-c2cc3cc(C)cc(OC)c3s2)c2c(N)ncnn2c1CN1CCNCC1` [Example 24, 5-(7-Methoxy-5-methyl-1-benzothiophen-2-yl)-7-(piperazin-1-ylmethyl)-6-(propoxymethyl)pyrrolo[2,1-f][1,2,4]triazin-4-amine bis(formiate)], for which the inhibition at 1 µM was 6.3%.
As to `COc1cc(C)cc2cc(-c3c(COCC4CC4)c(CN4CCNCC4)n4ncnc(N)c34)sc12` [Example 25, 6-[(Cyclopropylmethoxy)methyl]-5-(7-methoxy-5-methyl-1-benzothiophen-2-yl)-7-(piperazin-1-ylmethyl)pyrrolo[2,1-f][1,2,4]triazin-4-amine bis(formiate)], the inhibition at 1 µM came to 3.5%.
On the same count and under the same terms, then `COc1cc(C)cc2cc(-c3c(COC(C)C)c(CN4CCNCC4)n4ncnc(N)c34)sc12` [Example 27, 6-(Isopropoxymethyl)-5-(7-methoxy-5-methyl-1-benzothiophen-2-yl)-7-(piperazin-1-ylmethyl)pyrrolo[2,1-f][1,2,4]triazin-4-amine formiate], with 5.9%; and `COc1cc(C)cc2cc(-c3c(COCC(F)(F)F)c(CN4CCNCC4)n4ncnc(N)c34)sc12` [Example 29, 5-(7-Methoxy-5-methyl-1-benzothiophen-2-yl)-7-(piperazin-1-ylmethyl)-6-[(2,2,2-trifluoroethoxy)methyl]pyrrolo[2,1-f][1,2,4]triazin-4-amine formiate], with 28.5%; and `COC(=O)COCc1c(-c2cc3cc(C)cc(OC)c3s2)c2c(N)ncnn2c1CN1CCNCC1` [Example 31, Methyl {[4-amino-5-(7-methoxy-5-methyl-1-benzothiophen-2-yl)-7-(piperazin-1-ylmethyl)pyrrolo[2,1-f][1,2,4]triazin-6-yl]methoxy}acetate], with 16.3%.
For `COc1cc(C)cc2cc(-c3c(COCC(=O)O)c(CN4CCNCC4)n4ncnc(N)c34)sc12` [Example 32, {[4-Amino-5-(7-methoxy-5-methyl-1-benzothiophen-2-yl)-7-(piperazin-1-ylmethyl)pyrrolo[2,1-f][1,2,4]triazin-6-yl]methoxy}acetic acid], the inhibition at 1 µM is 1.6%.
Take `COc1cc(C)cc2cc(-c3c(COCC(N)=O)c(CN4CCNCC4)n4ncnc(N)c34)sc12` [Example 33, 2-{[4-Amino-5-(7-methoxy-5-methyl-1-benzothiophen-2-yl)-7-(piperazin-1-ylmethyl)pyrrolo[2,1-f][1,2,4]triazin-6-yl]methoxy}acetamide]: the inhibition at 1 µM was 0.9%.
As to `COc1cc(C)cc2cc(-c3c(COc4ccccc4)c(CN4CCNCC4)n4ncnc(N)c34)sc12` [Example 35, 5-(7-Methoxy-5-methyl-1-benzothiophen-2-yl)-6-(phenoxymethyl)-7-(piperazin-1-ylmethyl)pyrrolo[2,1-f][1,2,4]triazin-4-amine bis(formiate)], the inhibition at 1 µM amounted to 1.4%.
As to `CNCc1c(-c2cc3cc(C)cc(OC)c3s2)c2c(N)ncnn2c1CN1CCNCC1` [Example 36, 5-(7-Methoxy-5-methyl-1-benzothiophen-2-yl)-6-[(methylamino)methyl]-7-(piperazin-1-ylmethyl)pyrrolo[2,1-f][1,2,4]triazin-4-amine trihydrochloride], the inhibition at 1 µM was 14.4%.
The same measure, in the same setting: then `COc1cc(C)cc2cc(-c3c(CN(C)C)c(CN4CCNCC4)n4ncnc(N)c34)sc12` [Example 37, 6-[(Dimethylamino)methyl]-5-(7-methoxy-5-methyl-1-benzothiophen-2-yl)-7-(piperazin-1-ylmethyl)pyrrolo[2,1-f][1,2,4]triazin-4-amine trihydrochloride], with 8.6%; and `CCN(CC)Cc1c(-c2cc3cc(C)cc(OC)c3s2)c2c(N)ncnn2c1CN1CCNCC1` [Example 43, 6-[(Diethylamino)methyl]-5-(7-methoxy-5-methyl-1-benzothiophen-2-yl)-7-(piperazin-1-ylmethyl)pyrrolo[2,1-f][1,2,4]triazin-4-amine trihydrochloride], with 10.1%.
`COc1cc(C)cc2cc(-c3c(CNCC(=O)O)c(CN4CCNCC4)n4ncnc(N)c34)sc12` [Example 48, N-{[4-Amino-5-(7-methoxy-5-methyl-1-benzothiophen-2-yl)-7-(piperazin-1-ylmethyl)pyrrolo[2,1-f]-[1,2,4]triazin-6-yl]methyl}glycine trihydrochloride]: the inhibition at 1 µM is 4.1%.
As to `COc1cc(C)cc2cc(-c3c(CN4CCNC(=O)C4)c(CN4CCN(C=O)CC4)n4ncnc(N)c34)sc12` [Example 58, 4-({4-Amino-5-(7-methoxy-5-methyl-1-benzothiophen-2-yl)-6-[(3-oxopiperazin-1-yl)methyl]pyrrolo[2,1-f][1,2,4]triazin-7-yl}methyl)piperazine-1-carbaldehyde formiate], the inhibition at 1 µM stood at 4%.
On to `COc1cc(C)cc2cc(-c3c(CNC(C)=O)c(CN4CCN(C=O)CC4)n4ncnc(N)c34)sc12` [Example 65, N-({4-Amino-7-[(4-formylpiperazin-1-yl)methyl]-5-(7-methoxy-5-methyl-1-benzothiophen-2-yl)pyrrolo[2,1-f][1,2,4]triazin-6-yl}methyl)acetamide formiate], for which the inhibition at 1 µM amounted to 13.9%.
